From article PMC10288505, “Photoswitchable Calixarene Activators for Controlled Peptide Transport across Lipid Membranes” (Journal of the American Chemical Society, 2023)

How the values were obtained:
[1] = Light-modulated CF dye efflux assay (in situ irradiation at 500 nm); format: biochemical
Protocol: To this aim, Z-1 and Z-2 were added to EYPC-LUV⊃CF dispersions at fixed concentrations to study the CF release upon in situ light stimulation. […] Irradiation with 500 nm light promotes the conversion of Z-2 into E-2, a stronger counterion activator, leading to ca. 50% of extra dye released as a result of the light-triggered translocation of R6 into the liposome (Figure 4 iii).
Figure 4 (A) Light-modulated dye efflux assays performed with 4 μM R6, 60 nM Z-2, and 15 μΜ EYPC-LUV⊃CF (50 mM CF inside the liposome) and (B) schematization of each phase in the assay. (i) First, the activator Z-2 was added to a liposome solution (ii) followed by the addition of the peptide. (iii) The same sample was irradiated for 25 min at 500 nm, leading to a significant increase in CF release. (iv) Finally, in order to normalize the measurement for the maximum emission possible, the vesicles were lysed by addition of a small aliquot of Triton X-100. […]
until the emission stabilizes and a maximum of release is reached. If the counterion activator has the capacity to activate the transport, CF should be co-transported to the exterior of the liposome with the influx of the counterion-peptide complex. Finally, Triton X-100 is added to the solution to dissolve the vesicles and obtain the maximum amount of CF that could be released from the liposomes and emit in the […]
EC50 and Ymax values were calculated from the values of corrected emission at the plateau that is reached, according to previously reported assays.7
Light-activated release assays. The light-modulation offered by this novel counterion activator was tested by performing dye efflux assays as previously described, with the addition of an interval in the measurement where the solution was irradiated at 500 nm. […]
Figure S44 - Light-modulated dye efflux assays done with the peptide A) R6, 4 µM, and B) R8, 5 µM, with a fixed concentration of Z-1 of 0.20 µM for both assays. 40 µM of EYPC-LUV and 20 µΜ EYPC-LUV⊃CF (50 mM of CF) were used in the first assay and 30 µM of EYPC-LUV and 7 µΜ EYPC-LUV⊃CF (50 mM of CF) were used in the latter. The assay was performed in the same way as the dye release assays (addition of the peptide marked with a red dashed arrow) with an additional irradiation step for an interval of 30 to 40 min (marked with a black arrow), leading to an increase in release of ~15% for the peptide R6 and only 7% for the peptide R8. […]
Figure S45 - Light-modulated dye efflux assay done with the peptide R8, 4 µM, with a fixed concentration of Z-2 of 16 nM. 15 µΜ of EYPC-LUV⊃CF (50 mM of CF) were used and the light activation step was done with a single 25 min irradiation cycle at 500 nm (marked with a black arrow). The increase of release obtained was of 14%. […]

HeLa cells = assay: MTT viability assay; format: cell-based; conditions: 24 h of incubation, 4-parameters logistic fit, triplicate, read-out: IC50 cytotoxicity
Protocol: Success in artificial vesicle assays encouraged us to conduct transport experiments of fluorescently labeled peptides in living cells (Figure 5). We first employed confocal fluorescence microscopy to evaluate counterion activator 2 for the intracellular transport of a carboxytetramethylrhodamine-labeled R8 peptide (TAMRA-R8) into the cytosol of HeLa cells. Cationic peptides usually remain trapped inside the endosomes when incubated with cells at low μM concentrations.[32],[44] […] The cytometry experiments validated the E isomer selective transport and indicated a four-fold intracellular delivery enhancement (Figure 5C and Figure S52). […]
measured on a Guava easyCyte BG HT collecting the emission at 583/26 nm (Yellow-G channel), using InCyte v3.2 (GuavaSoft, Millipore). Cells with typical FSC and SSC parameters were selected and the mean fluorescence intensity was calculated for each sample. Each condition was measured in quadruplicate. […]
Afterwards, samples were removed and replaced with 100 µL of fresh complete DMEM supplemented with 0.5 mg/mL MTT. […] The absorbance at 570 nm was measured with a plate reader (Tecan Infinite F200Pro) and the data normalized to the value of untreated cells (100% viability), after blank subtraction (cells previously treated with Triton X-100). Each condition was measured in triplicate. […]

| SMILES | Increase in CF release upon irradiation, R6 ([1]; 4 µM R6, 0.20 µM Z-1, 40 µM EYPC-LUV and 20 µM EYPC-LUV⊃CF (50 mM CF), irradiation 30 to 40 min at 500 nm) | Increase in CF release upon irradiation, R8 ([1]; 5 µM R8, 0.20 µM Z-1, 30 µM EYPC-LUV and 7 µM EYPC-LUV⊃CF (50 mM CF), irradiation 30 to 40 min at 500 nm) | IC50 (HeLa cells) | Extra dye released upon irradiation at 500 nm, R6 ([1]; 4 μM R6, 60 nM Z-2, 15 μM EYPC-LUV⊃CF (50 mM CF), irradiated 25 min at 500 nm) | Increase in CF release upon irradiation, R8 ([1]; 4 µM R8, 16 nM Z-2, 15 µM EYPC-LUV⊃CF (50 mM CF), single 25 min irradiation cycle at 500 nm) |
| --- | --- | --- | --- | --- | --- |
| O=S(=O)([O-])c1cc2c(O)c(c1)Cc1cc(S(=O)(=O)[O-])cc(c1O)Cc1cc(S(=O)(=O)[O-])cc(c1OCCCCCCOc1ccc(/N=N\c3ccccc3)cc1)Cc1cc(S(=O)(=O)[O-])cc(c1O)C2.[Li+].[Li+].[Li+].[Li+] [Z-1] | ~ 15% | 7% |  |  |  |
| CCCCc1ccc(/N=N/c2ccc(OCCCOc3c4cc(S(=O)(=O)[O-])cc3Cc3cc(S(=O)(=O)[O-])cc(c3O)Cc3cc(S(=O)(=O)[O-])cc(c3O)Cc3cc(S(=O)(=O)[O-])cc(c3O)C4)cc2)cc1.[Li+].[Li+].[Li+].[Li+] [E-2] |  |  | 16.9 µM |  |  |
| CCCCc1ccc(/N=N\c2ccc(OCCCOc3c4cc(S(=O)(=O)[O-])cc3Cc3cc(S(=O)(=O)[O-])cc(c3O)Cc3cc(S(=O)(=O)[O-])cc(c3O)Cc3cc(S(=O)(=O)[O-])cc(c3O)C4)cc2)cc1.[Li+].[Li+].[Li+].[Li+] [Z-2] |  |  | 19.2 µM | ca. 50% | 14% |
